Measurements: publication PMC3961306, “Comparison of the Cancer Gene Targeting and Biochemical Selectivities of All Targeted Kinase Inhibitors Approved for Clinical Use” (PLoS ONE, 2014)

Assays:
Assay in all cases: Kinase profiling in a biochemical assay panel (mobility shift assays and ELISA), %-inhibition at 1 μM; selectivity entropy
[1] = target: panel of more than 300 wild-type and mutant kinases (313 kinase panel) (Homo sapiens, UniProt P53350); conditions: kinase PLK1; 1 μM
[2] = target: T1, panel of more than 300 wild-type and mutant kinases (313 kinase panel) (Homo sapiens, UniProt Q8TD19); conditions: kinase NEK9; 1 μM
T1 sequence (Q8TD19 1-979): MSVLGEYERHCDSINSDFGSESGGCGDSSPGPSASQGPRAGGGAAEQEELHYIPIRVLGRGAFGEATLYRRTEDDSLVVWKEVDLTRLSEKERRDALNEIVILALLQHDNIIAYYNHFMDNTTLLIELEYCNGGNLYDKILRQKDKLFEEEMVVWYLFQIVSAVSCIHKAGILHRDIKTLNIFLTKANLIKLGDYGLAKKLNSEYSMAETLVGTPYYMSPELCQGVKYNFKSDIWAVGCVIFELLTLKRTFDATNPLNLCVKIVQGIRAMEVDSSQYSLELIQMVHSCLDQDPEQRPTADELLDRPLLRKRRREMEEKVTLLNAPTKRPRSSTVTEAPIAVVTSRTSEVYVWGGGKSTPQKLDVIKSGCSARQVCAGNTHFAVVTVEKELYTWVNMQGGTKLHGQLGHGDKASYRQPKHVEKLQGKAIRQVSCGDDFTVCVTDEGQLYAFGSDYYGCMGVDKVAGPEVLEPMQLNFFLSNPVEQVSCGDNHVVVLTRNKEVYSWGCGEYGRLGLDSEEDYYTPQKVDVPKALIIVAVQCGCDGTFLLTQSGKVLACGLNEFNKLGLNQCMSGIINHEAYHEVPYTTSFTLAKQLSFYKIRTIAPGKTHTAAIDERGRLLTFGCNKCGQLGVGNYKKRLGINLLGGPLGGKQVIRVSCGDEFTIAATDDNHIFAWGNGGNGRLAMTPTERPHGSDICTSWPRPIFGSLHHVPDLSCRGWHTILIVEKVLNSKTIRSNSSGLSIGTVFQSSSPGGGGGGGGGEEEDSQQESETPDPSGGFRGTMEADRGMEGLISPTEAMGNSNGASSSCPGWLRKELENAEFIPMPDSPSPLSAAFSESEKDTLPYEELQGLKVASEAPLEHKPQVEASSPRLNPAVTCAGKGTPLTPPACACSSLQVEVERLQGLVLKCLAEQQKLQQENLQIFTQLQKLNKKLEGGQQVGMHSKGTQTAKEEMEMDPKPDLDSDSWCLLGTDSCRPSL

[3] = target: T2, panel of more than 300 wild-type and mutant kinases (313 kinase panel) (Homo sapiens, UniProt O15111); conditions: kinase IKKα; compound at 1 μM
T2 sequence (O15111 1-745): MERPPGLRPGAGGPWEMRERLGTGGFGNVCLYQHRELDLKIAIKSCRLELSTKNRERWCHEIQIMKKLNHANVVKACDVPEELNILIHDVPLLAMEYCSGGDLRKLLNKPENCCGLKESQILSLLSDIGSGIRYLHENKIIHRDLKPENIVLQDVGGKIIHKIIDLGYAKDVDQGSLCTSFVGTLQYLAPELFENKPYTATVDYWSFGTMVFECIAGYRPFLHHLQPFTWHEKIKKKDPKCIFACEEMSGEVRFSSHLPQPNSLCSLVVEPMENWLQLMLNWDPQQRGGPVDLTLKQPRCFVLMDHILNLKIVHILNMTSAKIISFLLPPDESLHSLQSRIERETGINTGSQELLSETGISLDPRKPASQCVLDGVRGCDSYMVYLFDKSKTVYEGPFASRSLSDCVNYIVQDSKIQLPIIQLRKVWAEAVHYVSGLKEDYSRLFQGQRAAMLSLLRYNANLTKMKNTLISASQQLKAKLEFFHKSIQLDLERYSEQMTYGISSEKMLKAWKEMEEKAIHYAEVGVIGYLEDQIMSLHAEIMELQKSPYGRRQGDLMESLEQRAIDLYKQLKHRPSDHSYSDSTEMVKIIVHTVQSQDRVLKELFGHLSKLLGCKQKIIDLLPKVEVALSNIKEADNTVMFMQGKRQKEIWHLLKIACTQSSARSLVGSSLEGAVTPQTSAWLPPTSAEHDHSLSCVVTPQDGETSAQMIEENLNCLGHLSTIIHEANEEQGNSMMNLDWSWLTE

[4] = target: panel of more than 300 wild-type and mutant kinases (313 kinase panel) (Homo sapiens, UniProt P22607, K650E); conditions: kinase FGFR3(K650E); compound at 1 μM
panel of more than 300 wild-type and mutant kinases (313 kinase panel) (Homo sapiens, UniProt P22607, K650E), sequence (P22607 23-806 K650E): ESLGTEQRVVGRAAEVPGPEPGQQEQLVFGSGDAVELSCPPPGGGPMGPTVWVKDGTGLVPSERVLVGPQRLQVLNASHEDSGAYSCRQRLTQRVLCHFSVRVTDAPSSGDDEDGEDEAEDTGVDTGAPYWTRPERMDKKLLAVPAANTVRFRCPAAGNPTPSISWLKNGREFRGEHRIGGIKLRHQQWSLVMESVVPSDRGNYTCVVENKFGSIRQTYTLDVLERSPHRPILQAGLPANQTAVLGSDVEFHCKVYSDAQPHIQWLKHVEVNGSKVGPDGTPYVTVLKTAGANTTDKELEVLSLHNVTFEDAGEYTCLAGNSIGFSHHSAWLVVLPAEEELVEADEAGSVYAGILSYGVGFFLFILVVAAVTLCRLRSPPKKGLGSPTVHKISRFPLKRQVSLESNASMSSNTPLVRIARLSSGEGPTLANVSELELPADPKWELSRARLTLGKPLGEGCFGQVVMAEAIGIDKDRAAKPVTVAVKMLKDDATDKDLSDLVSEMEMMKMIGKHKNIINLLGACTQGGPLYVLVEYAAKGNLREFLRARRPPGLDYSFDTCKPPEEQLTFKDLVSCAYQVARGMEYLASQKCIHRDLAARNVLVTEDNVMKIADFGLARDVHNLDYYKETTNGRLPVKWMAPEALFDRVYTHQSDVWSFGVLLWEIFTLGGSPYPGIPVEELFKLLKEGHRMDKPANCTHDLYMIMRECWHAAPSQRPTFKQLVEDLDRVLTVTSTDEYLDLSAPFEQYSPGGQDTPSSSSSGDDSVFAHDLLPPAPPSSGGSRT

[5] = target: panel of more than 300 wild-type and mutant kinases (313 kinase panel) (Homo sapiens, UniProt Q9UM73); conditions: kinase ALK; 1 μM compound
[6] = target: panel of more than 300 wild-type and mutant kinases (313 kinase panel) (Homo sapiens, UniProt P08631); conditions: kinase HCK; compound at 1 μM
panel of more than 300 wild-type and mutant kinases (313 kinase panel) (Homo sapiens, UniProt P08631), sequence (P08631 whole entry, change not shown): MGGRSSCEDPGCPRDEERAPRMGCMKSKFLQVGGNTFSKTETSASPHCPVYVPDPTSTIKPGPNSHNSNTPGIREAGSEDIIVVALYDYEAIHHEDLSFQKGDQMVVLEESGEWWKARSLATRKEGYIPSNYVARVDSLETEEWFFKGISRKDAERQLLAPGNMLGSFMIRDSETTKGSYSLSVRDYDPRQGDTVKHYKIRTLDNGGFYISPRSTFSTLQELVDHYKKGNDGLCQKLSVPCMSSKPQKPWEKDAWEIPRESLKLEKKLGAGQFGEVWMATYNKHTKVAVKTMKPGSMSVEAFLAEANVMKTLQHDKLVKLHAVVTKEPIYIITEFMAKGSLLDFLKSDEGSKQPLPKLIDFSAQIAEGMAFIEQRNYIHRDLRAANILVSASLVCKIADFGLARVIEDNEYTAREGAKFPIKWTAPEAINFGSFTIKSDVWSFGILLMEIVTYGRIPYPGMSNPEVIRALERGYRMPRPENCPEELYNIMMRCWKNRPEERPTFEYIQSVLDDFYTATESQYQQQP

[7] = target: panel of more than 300 wild-type and mutant kinases (313 kinase panel) (Homo sapiens, UniProt Q9Y6R4); conditions: kinase MAP3K4; compound at 1 μM
panel of more than 300 wild-type and mutant kinases (313 kinase panel) (Homo sapiens, UniProt Q9Y6R4), sequence (Q9Y6R4 whole entry, change not shown): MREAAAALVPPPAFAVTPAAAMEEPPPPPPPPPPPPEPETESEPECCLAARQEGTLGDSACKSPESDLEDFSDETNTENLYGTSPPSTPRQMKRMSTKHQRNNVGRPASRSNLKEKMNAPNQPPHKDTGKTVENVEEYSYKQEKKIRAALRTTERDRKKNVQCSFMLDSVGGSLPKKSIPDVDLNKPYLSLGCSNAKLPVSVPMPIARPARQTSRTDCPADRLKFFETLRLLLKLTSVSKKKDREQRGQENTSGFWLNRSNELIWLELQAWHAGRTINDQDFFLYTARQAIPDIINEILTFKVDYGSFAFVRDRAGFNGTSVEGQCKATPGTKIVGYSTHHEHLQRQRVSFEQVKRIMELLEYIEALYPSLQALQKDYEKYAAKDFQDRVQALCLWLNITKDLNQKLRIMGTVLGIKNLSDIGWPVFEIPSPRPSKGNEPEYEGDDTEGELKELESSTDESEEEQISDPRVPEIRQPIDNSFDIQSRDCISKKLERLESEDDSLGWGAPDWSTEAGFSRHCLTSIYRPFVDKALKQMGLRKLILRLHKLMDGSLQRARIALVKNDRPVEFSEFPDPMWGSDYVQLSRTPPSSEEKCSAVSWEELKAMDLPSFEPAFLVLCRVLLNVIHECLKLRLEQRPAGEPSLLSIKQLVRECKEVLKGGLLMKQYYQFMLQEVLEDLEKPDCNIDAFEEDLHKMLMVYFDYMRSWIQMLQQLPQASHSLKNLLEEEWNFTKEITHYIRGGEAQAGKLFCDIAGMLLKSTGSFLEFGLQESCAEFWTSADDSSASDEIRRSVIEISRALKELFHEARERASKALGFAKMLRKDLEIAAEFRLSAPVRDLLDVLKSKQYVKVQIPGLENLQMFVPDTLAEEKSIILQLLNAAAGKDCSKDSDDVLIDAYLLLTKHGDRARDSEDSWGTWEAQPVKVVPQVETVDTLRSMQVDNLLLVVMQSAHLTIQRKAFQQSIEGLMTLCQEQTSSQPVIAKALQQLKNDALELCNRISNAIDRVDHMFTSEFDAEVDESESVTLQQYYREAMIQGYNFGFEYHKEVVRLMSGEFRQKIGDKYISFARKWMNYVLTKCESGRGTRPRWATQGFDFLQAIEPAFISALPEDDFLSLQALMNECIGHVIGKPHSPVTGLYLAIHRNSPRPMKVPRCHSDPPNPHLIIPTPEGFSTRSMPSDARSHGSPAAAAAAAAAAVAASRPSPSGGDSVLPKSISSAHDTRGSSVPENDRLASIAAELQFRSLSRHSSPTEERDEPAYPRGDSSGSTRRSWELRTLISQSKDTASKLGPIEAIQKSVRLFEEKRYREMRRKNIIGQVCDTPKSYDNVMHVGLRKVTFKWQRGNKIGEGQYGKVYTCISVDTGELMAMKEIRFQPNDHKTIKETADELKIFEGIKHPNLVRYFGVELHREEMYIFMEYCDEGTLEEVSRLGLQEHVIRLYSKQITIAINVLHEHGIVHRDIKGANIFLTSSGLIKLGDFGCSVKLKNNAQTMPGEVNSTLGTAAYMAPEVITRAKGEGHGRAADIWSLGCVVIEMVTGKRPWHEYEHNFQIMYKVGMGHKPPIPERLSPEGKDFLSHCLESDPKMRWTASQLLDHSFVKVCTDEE

[8] = target: panel of more than 300 wild-type and mutant kinases (313 kinase panel) (Homo sapiens, UniProt Q13131); conditions: kinase AMPKα1/β1/γ1; 1 μM compound
panel of more than 300 wild-type and mutant kinases (313 kinase panel) (Homo sapiens, UniProt Q13131), sequence (Q13131 whole entry, stated change not applied): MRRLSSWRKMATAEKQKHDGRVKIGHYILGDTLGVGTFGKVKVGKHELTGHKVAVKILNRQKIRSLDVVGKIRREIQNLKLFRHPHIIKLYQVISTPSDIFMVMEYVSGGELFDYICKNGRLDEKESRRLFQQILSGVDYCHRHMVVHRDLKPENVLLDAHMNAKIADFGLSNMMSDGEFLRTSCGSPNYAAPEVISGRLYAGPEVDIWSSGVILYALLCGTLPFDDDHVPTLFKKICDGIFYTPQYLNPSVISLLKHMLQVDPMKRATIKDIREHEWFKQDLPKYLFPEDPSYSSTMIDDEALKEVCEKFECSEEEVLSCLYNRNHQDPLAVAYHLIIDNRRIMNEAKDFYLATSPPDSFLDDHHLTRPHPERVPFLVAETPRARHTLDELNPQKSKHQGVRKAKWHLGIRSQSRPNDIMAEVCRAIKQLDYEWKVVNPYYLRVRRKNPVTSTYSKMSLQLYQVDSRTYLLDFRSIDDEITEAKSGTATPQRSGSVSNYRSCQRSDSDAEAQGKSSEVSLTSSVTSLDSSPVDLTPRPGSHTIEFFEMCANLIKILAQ

[9] = target: panel of more than 300 wild-type and mutant kinases (313 kinase panel) (Homo sapiens, UniProt P48730); conditions: kinase CK1δ; 1 μM compound

| Structure (SMILES) | %-inhibition of PLK1 [1] [%] | %-inhibition of NEK9 [2] [%] | %-inhibition of IKKα [3] [%] | %-inhibition of FGFR3(K650E) [4] [%] | %-inhibition, ALK [5] [%] | %-inhibition of HCK [6] [%] | %-inhibition of MAP3K4 [7] [%] | %-inhibition, AMPKα1/β1/γ1 [8] [%] | %-inhibition, CK1δ [9] [%] |
| --- | --- | --- | --- | --- | --- | --- | --- | --- | --- |
| CO[C@H]1C[C@@H]2CC[C@@H](C)[C@@](O)(O2)C(=O)C(=O)N2CCCC[C@H]2C(=O)O[C@H]([C@H](C)C[C@@H]2CC[C@@H](OCCO)[C@H](OC)C2)CC(=O)[C@H](C)/C=C(\C)[C@@H](O)[C@@H](OC)C(=O)[C@H](C)C[C@H](C)/C=C/C=C/C=C/1C [everolimus] | 0.059 | -11 | -3.22 | -4.55 | 1.68 | -2.7 | -1.11 | -6 | -4.27 |
| CC(=O)Nc1cccc(-n2c(=O)n(C3CC3)c(=O)c3c(Nc4ccc(I)cc4F)n(C)c(=O)c(C)c32)c1 [trametinib] | -9 | -3 | 2.63 | -1.07 | -2.82 | -2.84 | 6 | -12 | 0.365 |
| CO[C@H]1C[C@@H]2CC[C@@H](C)[C@@](O)(O2)C(=O)C(=O)N2CCCC[C@H]2C(=O)O[C@H]([C@H](C)C[C@@H]2CC[C@@H](OC(=O)C(C)(CO)CO)[C@H](OC)C2)CC(=O)[C@H](C)/C=C(\C)[C@@H](O)[C@@H](OC)C(=O)[C@H](C)C[C@H](C)/C=C/C=C/C=C/1C [temsirolimus] | -0.295 | -8 | 1.39 | -2.55 | -2 | 3.49 | 11 | -4.34 | -5.47 |
